Experimental data: patent publication US20240228512A1, “ACYCLIC OXAZEPINE COMPOUNDS COMPRISING A 6-AZA MOIETY AND USES THEREOF” (Genentech, Inc., priority 2022, published 2024)

Tests used:
Format in all cases: cell-based
SW480 cells = assay: SW480 CTG proliferation assay; conditions: Homo sapiens
SW620 PERK = SW620 PERK assay; conditions: Homo sapiens, SW-620, SW620, PERK
SW620 cells = assay: SW620 3D proliferation assay (CellTiter-Glo); conditions: Homo sapiens, SW-620, 168 h, SW620, 3D culture, 7 days, read-out: SW620 CTG IC50
How it was run: (§1)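 Cells were seeded in ultra-low attachment plates (3000 or 1000 cells/well for 96- or 384-well format) in RPMI-1640, 10% FBS, 2 mM L-glutamine and cultured overnight at 37 °C/5% CO2 to form spheroids. Compounds were added by 333-fold dilution from DMSO for 7 days. Viability was read as CellTiter-Glo 3D ATP luminescence, with IC50 from a 4-parameter logistic fit.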

H1975 cells = assay: H1975 CTG proliferation assay; conditions: Homo sapiens, NCI-H1975, H1975, CTG
HPAC cells = assay: HPAC 3D proliferation assay (CellTiter-Glo); conditions: Homo sapiens, 168 h, 3D culture, 7 days, read-out: HPAC CTG IC50
How it was run: as §1

Structure (SMILES) | IC50 (SW480 cells) | IC50 (SW620 PERK) | IC50 (SW620 cells) | IC50 (H1975 cells) | IC50 (HPAC cells)
Cc1c(F)c(N)cc(-c2nc3c4c(nc(OC[C@@H]5CC[C@H]6COCCN65)nc4c2F)N([C@H](C)c2cccnc2N)CCO3)c1C(F)(F)F [Example 16, 3-((R)-1-(5-(5-amino-4-fluoro-3-methyl-2-(trifluoromethyl)phenyl)-4-fluoro-2-(((6S,8aS)-hexahydro-1H-pyrrolo[2,1-c][1,4]oxazin-6-yl)methoxy)-8,9-dihydro-10H-7-oxa-1,3,6,10-tetraazacyclohepta[de]naphthalen-10-yl)ethyl)pyridin-2-amine] | 10 nM | 2.53 nM | 3.77 nM | 31.1 nM | 30.2 nM
Cc1cc(N)c(F)c(-c2nc3c4c(nc(OC[C@@H]5CC[C@H]6COCCN65)nc4c2F)N([C@H](C)c2cccnc2N)CCO3)c1C(F)(F)F [Example 22, 3-((1R)-1-(5-(3-amino-2-fluoro-5-methyl-6-(trifluoromethyl)phenyl)-4-fluoro-2-(((6S,8aS)-hexahydro-1H-pyrrolo[2,1-c][1,4]oxazin-6-yl)methoxy)-8,9-dihydro-10H-7-oxa-1,3,6,10-tetraazacyclohepta[de]naphthalen-10-yl)ethyl)pyridin-2-amine] | 24 nM | 6.32 nM | 6.45 nM | 48.7 nM | 67 nM
C[C@H](c1cccnc1N)N1CCOc2nc(-c3cc(N)c(F)c(F)c3C(F)(F)F)c(F)c3nc(OC[C@@]45CCCN4C[C@H](F)C5)nc1c23 [Example 623, 3-((R)-1-(5-(5-amino-3,4-difluoro-2-(trifluoromethyl)phenyl)-4-fluoro-2-(((2R,7aS)-2-fluorotetrahydro-1H-pyrrolizin-7a(5H)-yl)methoxy)-8,9-dihydro-10H-7-oxa-1,3,6,10-tetraazacyclohepta[de]naphthalen-10-yl)ethyl)pyridin-2-amine] | 50 nM | 2.29 nM | 3.3 nM | 4300 nM | 14.1 nM
CCc1cccc2cc(O)cc(-c3nc4c5c(nc(OC[C@@]67CCCN6C[C@H](F)C7)nc5c3F)N([C@H](C)c3cccnc3N)CCO4)c12 [Example 27, 4-(10-((R)-1-(2-aminopyridin-3-yl)ethyl)-4-fluoro-2-(((2R,7aS)-2-fluorotetrahydro-1H-pyrrolizin-7a(5H)-yl)methoxy)-9,10-dihydro-8H-7-oxa-1,3,6,10-tetraazacyclohepta[de]naphthalen-5-yl)-5-ethylnaphthalen-2-ol] | 31 nM | – | 1.68 nM | 2.59 nM | 55.2 nM
C#Cc1cccc2cc(O)cc(-c3nc4c5c(nc(OC[C@@H]6CC[C@H]7COCCN76)nc5c3F)N([C@H](C)c3cccnc3N)CCO4)c12 [Example 17, 4-(10-((R)-1-(2-aminopyridin-3-yl)ethyl)-4-fluoro-2-(((6S,8aS)-hexahydro-1H-pyrrolo[2,1-c][1,4]oxazin-6-yl)methoxy)-9,10-dihydro-8H-7-oxa-1,3,6,10-tetraazacyclohepta[de]naphthalen-5-yl)-5-ethynyinaphthalen-2-ol] | 110 nM | 4.33 nM | 13.7 nM | 9.15 nM | 228 nM
C[C@H](c1cccnc1N)N1CCOc2nc(-c3cccc4sc(N)nc34)c(F)c3nc(OC[C@@]45CCCN4C[C@H](F)C5)nc1c23 [Example 24, 4-(10-((R)-1-(2-aminopyridin-3-yl)ethyl)-4-fluoro-2-(((2R,7aS)-2-fluorotetrahydro-1H-pyrrolizin-7a(5H)-yl)methoxy)-9,10-dihydro-8H-7-oxa-1,3,6,10-tetraazacyclohepta[de]naphthalen-5-yl)benzo[d]thiazol-2-amine] | 700 nM | 466 nM | 1020 nM | 5170 nM | 2000 nM
Cc1cc(N)c(F)c(-c2nc3c4c(nc(OC[C@@]56CCCN5C[C@H](F)C6)nc4c2F)N([C@H](C)c2cccnc2N)CCO3)c1C(F)(F)F [Example 15, 3-((1R)-1-(5-(3-amino-2-fluoro-5-methyl-6-(trifluoromethyl)phenyl)-4-fluoro-2-(((2R,7aS)-2-fluorotetrahydro-1H-pyrrolizin-7a(5H)-yl)methoxy)-8,9-dihydro-10H-7-oxa-1,3,6,10-tetraazacyclohepta[de]naphthalen-10-yl)ethyl)pyridin-2-amine] | 10 nM | 2.24 nM | 0.74 nM | 2.59 nM | 8.84 nM
